Experiment [1] concerns Runx2. As to the kind of experiment: 6XOSE/Luc luciferase reporter assay of Runx2 transcriptional activity in MC4 cells. Type of experiment: cell-based. The method, then: Further to examine whether the increased expression of Runx2, which is a transcription factor, affects the expression of other genes regulated by Runx2, the following experiments were performed. For this, MC4 cells were seeded onto each well of a 96 well plate at the concentration of 20,000 cells/well and the cells were transfected with a plasmid 6XOSE/Luc reporter vector (Journal of Biological Chemistry. 285: 3568-3574 (2010)) which expresses luciferase gene under the control of osteocalcin using Lipofectamin® (Life technologies, Inc) according to the manufacturer's instruction. The promoter in the plasmid contains […] to each of which Runx2 binds. By binding of Runx2 to the motif, the expression of luciferase increases. After 16 hrs after the transfection, MDP at the concentration as indicated in FIG. 3 was added to the cells. After 24 hrs, the cells were lysed and the luciferase activity was measured using Luciferase detection kit (Promega, USA) according to the manufacturer's instruction to quantify the mRNA level of osteocalcin gene, which is affected by Runx2.
In addition to MDP as used in Example 2-1, as a derivative thereof, M-TriLYS (MurNAc-Ala-D-isoGln-Lys, N-acetylmuramyl-L-alanine-D-isoglutamine-lysine) and 6-O-stearoyl-N-acetylmuramyl-L-alanyl-D-isoglutamine (L18-MDP) were used to examine the effect of the derivatives on the expression of Runx2 at transcription level. M-TriLYS is a muropeptide obtainable from peptidoglycans of lactobacillus or salivarius and contains in its structure muramyl dipeptide. L18-MDP is a MDP derivative containing C18 fatty acid.
Background: In a reporter assay the amount or activity of a reporter protein is the signal.

Experiment [2] concerns mouse model treated with GST-RANKL. Description: GST-RANKL induced bone loss mouse model, microCT bone volume. Type of experiment: in vivo. The note with it: pretreatment 1.25 mg/kg i.p. twice, then GST-RANKL 1 mg/kg i.p. three times; vs controls not pretreated; FIG. 8. Here is the method:
Muramyl dipeptide was administered to a mouse by an intraperitoneal injection two times with four day interval between the administration at the concentration of 1.25 mg/kg. After 3 days of the administration, GST-RANKL recombinant protein was intraperitoneally administered at the concentration of 1 mg/kg three times with a 24 hr interval between the administrations, The bone volume was analyzed at 1 day after the last administrated with GST-RANKL. The recombinant protein was prepared using a RANKL expression vector, pGEX-GST-RANKL (J. Clin Invest. 106:1481-1488 (2000)), which was expressed in E. coli and the protein was purified using a sepharose gel attached with glutathione (glutathione-sepharose gels, Sigma-Aldrich). The purified protein was then treated with Detoxi-gel endotoxin removing gel (Thermo Scientific, USA) to remove endotoxin and used for the experiment. Seven days after the administration, mice were sacrificed and the bone volume was measured using a microCT. As controls, mice treated only with physiological saline, GST-RANKL or physiological saline and GST-RANKL in a consecutive order were used.

Experiment [3] concerns RANKL-primed osteoclast precursors. As to the kind of experiment: Osteoclast differentiation from RANKL-primed osteoclast precursors, TRAP staining. The conditions noted are these: 20 ng/ml M-CSF, 3 days; FIG. 7 right graph.
Protocol: Bone marrow cells (BMs) were isolated from the long bones of mouse and were cultured in α-MEM supplemented with 10% FBS, 100 U/ml penicillin and 100 μg/ml streptomycin, and 2 ng/ml M-CSF for 1 day. Suspended cells were differentiated into BMMs with 20 ng/ml M-CSF for 3 days. […] To make RANKL-primed osteoclast precursors, the BMMs were stimulated with 20 ng/ml mouse RANKL for 48 h. The BMMs were incubated with 20 ng/ml M-CSF in the presence or absence of MDP for additional 3 days.
The differentiation was determined by tartrate resistant acid phosphatase (TRAP) staining using Leukocyte acid phosphate-staining kit (Sigma-Aldrich Chemical, USA) according to the manufacturer's instruction. After the staining, TRAP-positive multinucleated cells with at least 3 nuclei were enumerated as mature osteoclasts with an inverted phase-contrast microscope and results are shown in FIG. 7.
Experiment [4] deals with WT C57BL/6 (B6) mice. Description: Histological observation (H&E) of mouse femur. The note with it: 1.25 mg/kg i.p. twice, vs physiological saline control; FIG. 6. Type of experiment: in vivo. Here is the method: (§1) To each mouse, 1.25 mg/kg of MDP prepared as described in Example 1 was administered twice with a 4 day interval by intraperitoneal injection. Physiological saline was used as a control. The second injection was given 4 days after the first injection and after 3 days the mice were sacrificed and used for bone volume analysis.
The femur used for the analysis of bone volume in Example 3-3 was used for a histological observation. For this, the femur was demineralized in 10% EDTA for 7 days and washed with running water for 12 hrs in a tissue capsule. After that, the femur was treated with alcohol and xylene and embedded in paraffin, from which sections having a thickness of 4 μm were prepared. The sections were then placed on a slide glass and deparaffinized at 65° C. for 30 min and treated with Hematoxylin and Eosin according to the conventional method.
The slides were then examined with a light microscope to observe the bone formation.

The test system of experiment [5] is osteoblast cell line MC4 cells (MC3T3-E1 Subclone 4). Description: Osteoblast differentiation by alkaline phosphatase (ALP) staining, MC4 cells. The note with it: 0.1, 1 and 10 μg/ml MDP, 5 days, differentiation medium; FIG. 1. Type of experiment: cell-based. Here is the method:
N-acetylmuramyl-L-Alanyl-D-Isoglutamine commercially available from Invivogen Inc. was dissolved in endotoxin free purified water to make a solution of 5 mg/ml. To assess the effect of muramyl dipeptide on the differentiation of osteoblast, osteoblast cell line MC4 cells (ATCC CRL-2593:MC3T3-E1 Subclone 4) were incubated in an ascorbic acid free-αMEM medium containing 10% fetal bovine serum, 50 unit/ml penicillin, 50 μg/ml streptomycin at 37° C. under 100% humidity and 5% CO2 atmosphere. The medium was changed every 3 days.
Then MC4 cells were seeded onto each well of a 48 well plate at the concentration of 20,000 cells/well and then after 16 hrs, each well was treated for 5 days with 400 μl of 0, 0.1, 1 and 10 μg/ml of MDP as prepared above in the differentiation medium (50 μg/ml ascorbic acid and 10 mM beta-glycerophosphate containing αMEM), during which half of the medium was changed twice with the differentiation medium. The effect on the differentiation was analyzed using alkaline phosphatase (ALP) staining. Results are shown in FIG. 1, in which the effect on the differentiation was determined by the number of cells showing red-purple color as well as the intensity of the color. […] Each experiment was repeated at least 3 times.

For experiment [6], the system named is WT C57BL/6 (B6) mice. As to the kind of experiment: Bone volume of mouse femur by microCT after MDP administration. Type of experiment: in vivo. The method, then:
Six-week-old WT C57BL/6 (B6) mice were purchased from Orient Company Ltd (Seoul, Korea). The animals were maintained at a controlled temperature (21±1° C.) and humidity (55±1%) with a 12/12-h light-dark cycle without any restriction of food and water. All animal experiments were performed following the protocol approved by the Institutional Animal Care and Use Committee of CRISNUH.
as §1
A right femur was removed from the sacrificed mouse and stripped of the muscle. The excised femur was then fixed in 10% of neutral formalin for one day at the least, which was then analyzed for bone volume using microCT. […] In FIG. 5, BV/TV=Bone volume/Tissue volume=% bone volume.

Experiment [7] concerns Runx2. Description: Immunoblot of Runx2 protein in MC4 cells. The note with it: 24 hrs, β-actin loading control, FIG. 2 lower part. Type of experiment: cell-based. Here is the method:
Also to examine the effect at the protein level, whole cell extract was prepared from the cells treated with MDP for 24 hrs as described above, and 40 μg of extract was used for SDS-PAGE electrophoresis. Then the gel was transferred to a PVDF membrane and immunoblot was performed using an antibody specific to Runx2 (Abcam, USA). […] The β-actin was used as a loading control.
Background: Immunoblotting shows a protein as a band on a membrane.

The next experiment relates to osteoblast. As to the kind of experiment: OPG and RANKL regulation in the osteoblast (data not shown). The experiment is classed as cell-based.
In experiment [8] the test system is Runx2. As to the kind of experiment: RT-PCR of Runx2 mRNA in MC4 cells. Type of experiment: cell-based. The note with it: 6 hrs, normalized relative to β-actin, FIG. 2 upper part. Here is the method: Then, total mRNA was extracted from the cells and incubated with random primer at 70° C. for 5 min. After that reverse transcriptase, buffer for RT and dNTPs were added to the reaction mixture and incubated at 42° C. for 1 hr to synthesize cDNA, which was then used as a template for PCR to amplify Runx2 using specific primers as described in Table 1 and using the following condition: cDNA was initially denatured at 94° C. for 5 min followed by 25 cycles at 95° C. for 40 s, 59° C. for 40 s, and 72° C. for 40 s and final extension for 5 min at 72° C. […] The results were normalized relative to β-actin data.

The mark [9] stands for this setting: 1.25 mg/kg i.p. twice, vs physiological saline control, FIG. 5.

Turning to “6-O-stearoyl-N-acetylmuramyl-L-alanyl-D-isoglutamine [L18-MDP]”, the “expression of Runx2 at the transcriptional level (reporter)” value (“expression of Runx2 … (reporter)” for short) in the experiment with Runx2 [1] (FIG. 3B) was “increased the expression of Runx2 at the transcriptional level”. Moreover, the “activity on Runx2 compared with MDP” value in the experiment on Runx2 [1] (higher than that of MDP, FIG. 3B) was 10 times.
As for “N-acetylmuramyl-L-Alanyl-D-Isoglutamine [MDP]”, the “bone loss due to GST-RANKL (bone volume, microCT)” value in [2] was “reduced”. Also, the “osteoclast differentiation from RANKL-primed osteoclast precursors” value in experiment [3] is reported as “did not affect”. Moreover, the “spongy bone in femur sections (H&E)” value in the experiment with WT C57BL/6 (B6) mice [4] is “more spongy bone was observed”. In addition, the “differentiation of MC4 (ALP staining)” value in experiment [5] is listed as “increased in a concentration dependent manner”. For the same substance, the “bone volume (microCT 3D image)” value in the experiment with WT C57BL/6 (B6) mice [6] (1.25 mg/kg i.p. twice with 4 day interval, right femur, vs physiological saline, FIG. 4) is given as “increase in bone volume”. Moreover, in the experiment on WT C57BL/6 (B6) mice [6] (setting [9]), the “Trabecular bone volume (BV/TV)” value is “increased statistically significantly”, the “Trabecular number (Tb.N)” value was “increased statistically significantly” and the “Trabecular thickness (Tb.Th)” value is “increased statistically significantly”. Further, the “expression of Runx2 protein” value in the experiment with Runx2 [7] is recorded as “increased the expression of Runx2 protein”. For the same substance, in the experiment with osteoblast, the “Osteoprotegerin (OPG) regulation in the osteoblast” value is on record as “up-regulation” and the “RANKL regulation in the osteoblast” value is reported as “down-regulation”. Further, the “indirect effect on osteoclast differentiation” value with osteoblast (through OPG and RANKL in the osteoblast) is recorded as “indirectly alleviated osteoclast differentiation”. Besides, the “expression of Runx2 … (reporter)” value in the experiment on Runx2 [1] (FIG. 3B) is recorded as “increased the expression of Runx2 at the transcriptional level”. Further, the “luciferase activity (transcription of osteocalcin, affected by Runx2)” value in the experiment on Runx2 [1] (MC4 cells, 24 hrs after addition, FIG. 3A) is reported as “increased the transcription of osteocalcin”. Besides, in the experiment with Runx2 [8], the “mRNA expression of Runx2” value is recorded as “increased after MDP treatment in a concentration dependent manner”.
As for “N-acetylmuramyl-L-alanine-D-isoglutamine-lysine [MTnLYS]”, the “expression of Runx2 … (reporter)” value in the experiment on Runx2 [1] (FIG. 3B) is reported as “increased the expression of Runx2 at the transcriptional level”.

(Values after patent US9884084B2, “Bone loss preventing and bone regeneration or bone formation promoting pharmaceutical composition comprising muramyl dipeptide” (SNU R&DB FOUNDATION, priority 2012, dated 2018).)
